Values of other authors, collected in patent US8318954B2, “Cleavable carnitine compound” (Nou Life Sciences, Inc., priority 2006, dated 2012).
“Also recorded” adds a separate entry of the source. Read-outs that look alike come from different tables or passages of the source.

Tests used:
[1] = system: chinchilla laniger; conditions: cited from earlier work
[2] = system: subcutaneous adipocytes in rats; conditions: long-term administration, rat; cited from earlier work
[3] = system: diabetic rats; conditions: streptozocin diabetic rats, sciatic nerve; amount administered not specified; cited from earlier work
[4] = system: Wobbler mice; conditions: twenty days oral, acetyl L-carnitine 200 mg/kg, carnitine mixture 200 mg/kg, α-lipoic acid 50 mg/kg; cited from earlier work
[5] = system: rats with unilateral sciatic nerve division; conditions: 50 mg/kg/day i.p. for 6 weeks; compared to no treatment; cited from earlier work
[6] = system: patients having diabetic neuropathy; conditions: cited from earlier work
[7] = system: diabetic rats; conditions: diabetic rat, 30 days after sciatic nerve cutting; diet: 200 mg/kg acetyl L-carnitine, 200 mg/kg carnitine mixture, 50 mg/kg α-lipoic acid daily; cited from earlier work
[8] = system: mice and rats; conditions: cited from earlier work
[9] = system: rats with unilateral sciatic nerve division; conditions: cited from earlier work
[10] = three weeks after noise exposure

## CC(=O)O[C@H](CC(=O)[O-])C[N+](C)(C)C [Acetyl-L-carnitine]
[1]; 4- to 10-kHz region
  outer hair cell loss: < 10%
[1]; in vivo
  inner and outer hair cell loss: reduced
[1]; [10]
  threshold shift at 2 to 4 kHz: no threshold shift
  threshold shifts at 6 to 8 kHz: < 10 dB
[2]
  size of subcutaneous adipocytes in aging skin: blocks progressive increase in size
[3]
  NMCV: 34.5 ± 2.1 m/sec
[4]
  % increase in running time: 35 ± 3.2%
[5]
  immunostaining for Schwann cells, percentage area: 86 % increase
  immunostaining for Schwann cells, total area: 111 % increase
  immunostaining for nerve fibres, percentage area: 229 % increase
  immunostaining for nerve fibres, total area: 264 % increase
  regeneration into the distal stump, percentage area: 3,034 % increase
  regeneration into the distal stump, total area: 2,242 % increase
[6]; 1000 mg/day i.m. 10 days, then 2000 mg/day oral 355 days, 12 month period
  tolerability: well tolerated
[6]; at 6- and 12 months, compared to placebo
  nerve conduction velocity NCV: statistically significant improvement
[6]; at 12 months, patients with impaired electrophysiological parameters at baseline, compared to placebo
  Amplitude: statistically significant improvement
[6]; compared to placebo
  pain (visual analogue scale): significant reduction; also recorded: statistically significant improvement
[7]
  Density of tibial nerve degenerate elements: 0.16 ± 0.02 per 100 nm^2
  Number of tibial nerve degenerate elements: 560 ± 61
[8]; parenteral, mice and rats
  dose that can be parenterally administered: up to 250 mg/kg
[8]; via the diet, 30 consecutive days, 200 mg/kg acetyl L-carnitine together with 100 mg/kg alpha lipoic acid
  tolerability on prolonged administration: well tolerated
[9]; 2 weeks after axotomy, high-dose 50 mg/kg/day parenteral, 50 mg/kg/day
  number of TUNEL-positive neurons: 3 /group
[9]; 2 weeks after axotomy, high-dose 50 mg/kg/day parenteral, listed as ALCAR, 50 mg/kg/day
  number of TUNEL-positive neurons: significantly reduced
[9]; 2 weeks after axotomy, high-dose 50 mg/kg/day, 50 mg/kg/day
  neuron loss: 2%
[9]; 2 weeks after axotomy, high-dose 50 mg/kg/day, listed as ALCAR, 50 mg/kg/day
  neuron loss: significantly reduced
[9]; 2 weeks after axotomy, low-dose 10 mg/kg/day parenteral
  number of TUNEL-positive neurons: 6 /group
[9]; 2 weeks after axotomy, low-dose 10 mg/kg/day
  neuron loss: 0%
[9]; two months after axotomy, high-dose 50 mg/kg/day
  neuron loss: −4%
